The values that follow come from ChEMBL document CHEMBL1139678, “Design and synthesis of novel N-sulfonyl-2-indole carboxamides as potent PPAR-gamma binding agents with potential application to the treatment of osteoporosis” (Bioorg Med Chem Lett, 2006).

Molecules are shown by their SMILES. Converted amounts (≈) assume the structure as drawn. The source made the active and inactive calls. The rule behind the calls is not given here.

The target of one data set is T1, Peroxisome proliferator-activated receptor gamma (Homo sapiens, UniProt P37231).
T1 sequence (P37231 whole entry): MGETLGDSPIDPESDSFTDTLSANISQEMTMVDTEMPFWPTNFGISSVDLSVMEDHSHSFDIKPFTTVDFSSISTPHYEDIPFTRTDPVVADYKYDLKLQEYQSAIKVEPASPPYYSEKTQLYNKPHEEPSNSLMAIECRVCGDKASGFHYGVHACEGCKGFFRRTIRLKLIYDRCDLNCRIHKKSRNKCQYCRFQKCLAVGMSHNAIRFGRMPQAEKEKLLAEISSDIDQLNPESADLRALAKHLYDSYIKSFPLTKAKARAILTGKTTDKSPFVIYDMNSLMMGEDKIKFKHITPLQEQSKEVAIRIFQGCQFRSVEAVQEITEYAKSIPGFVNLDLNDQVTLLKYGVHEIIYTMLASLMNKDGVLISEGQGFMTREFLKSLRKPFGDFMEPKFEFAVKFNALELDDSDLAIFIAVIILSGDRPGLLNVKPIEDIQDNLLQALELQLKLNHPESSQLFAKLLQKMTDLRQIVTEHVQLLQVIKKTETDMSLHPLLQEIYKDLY
As to the kind of experiment: Displacement of Fluormone from PPAR gamma.
Conditions: not given
In turn, `O=C(NS(=O)(=O)c1cccc(C(F)(F)F)c1)c1cc2ccccc2n1Cc1ccc(C(F)(F)F)cc1` gave an IC50 of 400 nM.

`O=C(NS(=O)(=O)c1cccc(C(F)(F)F)c1)c1cc2ccccc2n1Cc1ccccc1` yielded an IC50 of 280 nM.

The compound `Cc1ccc(S(=O)(=O)NC(=O)c2cc3ccccc3n2Cc2cccc(C(F)(F)F)c2)cc1` yielded an IC50 of 290 nM.

Compound `O=C(NS(=O)(=O)c1ccccc1)c1cc2ccccc2n1Cc1cccc(C(F)(F)F)c1` displayed an IC50 of 290 nM.

In turn, `O=C(NS(=O)(=O)c1cccc(C(F)(F)F)c1)c1cc2cc(Cl)ccc2n1Cc1cccc(C(F)(F)F)c1` gave an IC50 of 330 nM.

For the compound `O=C(NS(=O)(=O)c1cccc(C(F)(F)F)c1)c1cc2ccccc2n1Cc1cccc(C(F)(F)F)c1`, the IC50 amounted to 80 nM.

As for `O=C(NS(=O)(=O)c1cccc(C(F)(F)F)c1)c1cc2ccccc2n1Cc1cccc(OC(F)(F)F)c1`, the IC50 came to 90 nM.

For `O=C(NS(=O)(=O)c1ccccc1C(F)(F)F)c1cc2ccccc2n1Cc1cccc(C(F)(F)F)c1`, the 50% inhibitory concentration (IC50) was found to be 80 nM.

As to `O=C(NS(=O)(=O)c1ccc2ccccc2c1)c1cc2ccccc2n1Cc1cccc(C(F)(F)F)c1`, the half-maximal inhibitory concentration (IC50) was found to be 90 nM.

`O=C(NS(=O)(=O)c1ccc(Cl)s1)c1cc2ccccc2n1Cc1cccc(C(F)(F)F)c1` registered an IC50 of 80 nM.

On to `COc1ccc(-c2c(C(=O)NS(=O)(=O)c3cccc(C(F)(F)F)c3)n(Cc3cccc(C(F)(F)F)c3)c3ccccc23)cc1`, for which the IC50 amounted to 60 nM.

For `O=C(NS(=O)(=O)c1cccc(C(F)(F)F)c1)c1cc2ccccc2n1C(=O)c1cccc(C(F)(F)F)c1`, the IC50 was 9400 nM.

`COc1ccc(-c2c(C(=O)NS(C)(=O)=O)n(Cc3cccc(C(F)(F)F)c3)c3ccccc23)cc1` returned an IC50 of 2 nM.

`O=C(NS(=O)(=O)c1ccc(Cl)cc1)c1cc2ccccc2n1Cc1cccc(C(F)(F)F)c1` registered an IC50 of 280 nM.

On to `COc1ccc(-c2c(C(=O)NS(=O)(=O)c3ccc(F)cc3)n(Cc3cccc(C(F)(F)F)c3)c3ccccc23)cc1`, for which the IC50 was 7 nM.

Regarding `O=C(NS(=O)(=O)c1cccc(C(F)(F)F)c1)c1cc2cc(O)ccc2n1Cc1cccc(C(F)(F)F)c1`, the IC50 was found to be 540 nM.

For the compound `O=C(NS(=O)(=O)c1cccc(C(F)(F)F)c1)c1cc2cc(OCc3ccccc3)ccc2n1Cc1cccc(C(F)(F)F)c1`, the IC50 came out at 770 nM.

`CCn1c(C(=O)NS(=O)(=O)c2cccc(C(F)(F)F)c2)cc2ccccc21` returned an IC50 of 2440 nM.

As to `COc1ccc(-c2c(C(=O)NS(=O)(=O)c3ccccc3C)n(Cc3cccc(C(F)(F)F)c3)c3ccccc23)cc1`, the IC50 is 7 nM.

`COC(=O)c1ccccc1S(=O)(=O)NC(=O)c1c(-c2ccc(OC)cc2)c2ccccc2n1Cc1cccc(C(F)(F)F)c1` displayed an IC50 of 1 nM.

`O=C(NS(=O)(=O)c1cccc(C(F)(F)F)c1)c1cc2ccccc2n1Cc1cccc(OCc2ccccc2)c1` showed an IC50 of 50 nM.

On to `CC(C)(C)c1ccc(Cn2c(C(=O)NS(=O)(=O)c3cccc(C(F)(F)F)c3)cc3ccccc32)cc1`, for which the IC50 came out at 330 nM.

As to `Cc1ccccc1S(=O)(=O)NC(=O)c1cc2ccccc2n1Cc1cccc(C(F)(F)F)c1`, the IC50 stood at 180 nM.

Take `COc1cccc(Cn2c(C(=O)NS(=O)(=O)c3cccc(C(F)(F)F)c3)cc3ccccc32)c1`: the IC50 worked out at 140 nM.

`O=C(NS(=O)(=O)c1ccc(F)cc1)c1cc2ccccc2n1Cc1cccc(C(F)(F)F)c1`: the IC50 came out at 720 nM.

In the case of `CS(=O)(=O)NC(=O)c1cc2ccccc2n1Cc1cccc(C(F)(F)F)c1`, the IC50 worked out at 680 nM.

Take `O=C(NS(=O)(=O)c1cccc(C(F)(F)F)c1)c1cc2ccccc2n1Cc1cc(Cl)ccc1Cl`: the IC50 is 380 nM.

A further data set has as its system Osteoblast. Description: Induction of osteoblast differentiation assessed as stimulation of alkaline phosphatase in MC3T3-E1 cells. Type of data set: functional, cell-based. Conditions: Mus musculus.
Take `COc1ccc(-c2c(C(=O)NS(=O)(=O)c3ccccc3)n(Cc3cccc(C(F)(F)F)c3)c3ccccc23)cc1`: the EC50 came to 100 nM.

Turning to `O=C(NS(=O)(=O)c1ccc(Cl)cc1)c1cc2ccccc2n1Cc1cccc(C(F)(F)F)c1`, the EC50 stood at 1000 nM.

On to `COC(=O)c1ccccc1S(=O)(=O)NC(=O)c1c(-c2ccc(OC)cc2)c2ccccc2n1Cc1cccc(C(F)(F)F)c1`, for which the EC50 worked out at 1000 nM.

With `CN(CCOc1ccc(CC2SC(=O)NC2=O)cc1)c1ccccn1` (configuration not stated), the result was inactive.

System in the next data set: not listed separately
Description: Solubility of the compound. It counts as physicochemical.
Conditions: not given
In turn, `COc1ccc(-c2c(C(=O)NS(=O)(=O)c3ccccc3)n(Cc3cccc(C(F)(F)F)c3)c3ccccc23)cc1` returned a solubility of 5 µg/mL (≈ 8.86 µM).

A word on the IC50: it is the point on the concentration scale where inhibition reaches its midpoint. Read a high IC50 as weaker potency in that assay. For orientation: EC50 means the concentration that produces a half-maximal response. The term solubility denotes the dissolved amount per volume that the medium holds. High values mean much dissolved substance, low ones little dissolved substance.
